The source made the active and inactive calls. No cut-off for these calls is given here.
Tests used:
[1] = target: Cannabinoid receptor 1 (Homo sapiens) (UniProt P21554); experiment: Binding affinity to human CB1R-nYFP-CB1R-cYFP homodimerization co-transfected in HEK293T cells at 4 uM incubated for 4 hrs by BiFC assay; assay type: cell-based
HEK-293T [2] = experiment: Effect on G-protein coupling of 5HT2AR in forskolin-treated HEK293T cells transfected with CB1R-nYFP-5HT2AR-cYFP assessed as decrease in cAMP level pretreated with DOI/RIM by HTRF assay; assay type: functional, cell-based; conditions: Homo sapiens
HEK-293T [3] = experiment: Effect on ERK1/2 phosphorylation in forskolin-treated HEK293T cells transfected with CB1R-nYFP-5HT2AR-cYFP pretreated with DOI by cAMP based HTRF assay; assay type: functional, cell-based; conditions: Homo sapiens
HEK293T = experiment: Disruption of human CB1R-nYFP-5HT2AR-cYFP heterodimerization co-transfected in HEK293T cells assessed as decrease in fluorescence signal at 4 uM incubated for 4 hrs by BiFC assay; assay type: cell-based
[4] = target: 5-hydroxytryptamine receptor 2A (Homo sapiens) (UniProt P28223); experiment: Binding affinity to human 5HT2AR-nYFP-5HT2AR-cYFP homodimerization co-transfected in HEK293T cells at 4 uM incubated for 4 hrs by BiFC assay; assay type: cell-based
HEK-293T [5] = experiment: Effect on G-protein coupling of 5HT2AR in forskolin-treated HEK293T cells transfected with CB1R-nYFP-5HT2AR-cYFP assessed as decrease in cAMP level pretreated with WIN/MDL by HTRF assay; assay type: functional, cell-based; conditions: Homo sapiens
HEK-293T [6] = experiment: Effect on G-protein coupling of 5HT2AR in forskolin-treated HEK293T cells transfected with CB1R-nYFP-5HT2AR-cYFP pretreated with WIN by cAMP based HTRF assay; assay type: functional, cell-based; conditions: Homo sapiens
HEK-293T [7] = experiment: Upregulation of ERK1/2 phosphorylation in forskolin-treated HEK293T cells transfected with CB1R-nYFP-5HT2AR-cYFP pretreated with WIN/MDL by cAMP based HTRF assay; assay type: functional, cell-based; conditions: Homo sapiens
HEK-293T [8] = experiment: Upregulation of ERK1/2 phosphorylation in forskolin-treated HEK293T cells transfected with CB1R-nYFP-5HT2AR-cYFP pretreated with DOI/RIM by cAMP based HTRF assay; assay type: functional, cell-based; conditions: Homo sapiens
HEK-293T [9] = experiment: Effect on G-protein coupling of 5HT2AR in forskolin-treated HEK293T cells transfected with CB1R-nYFP-5HT2AR-cYFP pretreated with DOI by cAMP based HTRF assay; assay type: functional, cell-based; conditions: Homo sapiens
HEK-293T [10] = experiment: Upregulation of ERK1/2 phosphorylation in forskolin-treated HEK293T cells transfected with CB1R-nYFP-5HT2AR-cYFP pretreated with DOI/WIN by cAMP based HTRF assay; assay type: functional, cell-based; conditions: Homo sapiens
HEK-293T [11] = experiment: Effect on G-protein coupling of 5HT2AR in forskolin-treated HEK293T cells transfected with CB1R-nYFP-5HT2AR-cYFP assessed as decrease in cAMP level pretreated with DOI/WIN by HTRF assay; assay type: functional, cell-based; conditions: Homo sapiens

Sequence of 5-hydroxytryptamine receptor 2A (Homo sapiens) (P28223 whole entry): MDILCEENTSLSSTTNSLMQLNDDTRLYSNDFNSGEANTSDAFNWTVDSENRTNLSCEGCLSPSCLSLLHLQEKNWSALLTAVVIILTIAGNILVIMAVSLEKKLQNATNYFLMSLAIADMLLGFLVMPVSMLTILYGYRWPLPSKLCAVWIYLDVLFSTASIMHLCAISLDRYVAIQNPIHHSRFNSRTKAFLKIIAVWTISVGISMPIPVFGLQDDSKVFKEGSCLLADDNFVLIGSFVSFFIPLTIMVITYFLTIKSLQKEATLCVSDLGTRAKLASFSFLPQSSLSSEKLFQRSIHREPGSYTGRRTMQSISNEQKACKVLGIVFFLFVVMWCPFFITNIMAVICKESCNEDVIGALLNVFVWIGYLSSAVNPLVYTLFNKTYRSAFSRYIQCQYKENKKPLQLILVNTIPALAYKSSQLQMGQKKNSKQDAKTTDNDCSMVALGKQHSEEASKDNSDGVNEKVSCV
Sequence of Cannabinoid receptor 1 (Homo sapiens) (P21554 whole entry): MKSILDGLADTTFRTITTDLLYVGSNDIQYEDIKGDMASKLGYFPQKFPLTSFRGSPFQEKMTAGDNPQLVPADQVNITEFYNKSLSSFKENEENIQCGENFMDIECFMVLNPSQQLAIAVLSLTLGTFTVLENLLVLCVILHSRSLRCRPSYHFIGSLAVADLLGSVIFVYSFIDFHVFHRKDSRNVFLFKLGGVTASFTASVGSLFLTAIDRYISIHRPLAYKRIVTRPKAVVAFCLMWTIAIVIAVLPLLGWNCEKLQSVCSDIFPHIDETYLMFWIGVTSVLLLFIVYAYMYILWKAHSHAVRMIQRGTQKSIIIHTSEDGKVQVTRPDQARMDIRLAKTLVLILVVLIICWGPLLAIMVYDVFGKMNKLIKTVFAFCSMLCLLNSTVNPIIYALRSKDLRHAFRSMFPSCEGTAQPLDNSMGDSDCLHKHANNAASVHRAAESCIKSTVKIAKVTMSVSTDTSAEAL

| Activity [1] | Activity [4] | SMILES | Activity (HEK-293T [2]) | Activity (HEK-293T [3]) | Activity (HEK293T) | Activity (HEK-293T [5]) | Activity (HEK-293T [6]) | Activity (HEK-293T [7]) | Activity (HEK-293T [8]) | Activity (HEK-293T [9]) | Activity (HEK-293T [10]) | Activity (HEK-293T [11]) |
| --- | --- | --- | --- | --- | --- | --- | --- | --- | --- | --- | --- | --- |
| inactive | Active | CC(C)CNC(=O)c1oc2ccccc2c1COc1ccccc1 | Active | No effect | Active | Active | No effect | Active | Active | No effect | Active | Active |
| inactive | Active | CCC(CC)C(=O)N(Cc1ccccc1)Cc1ccccc1 | Active | No effect | Active | Active | No effect | Active | Active | No effect | Active | Active |
| – | – | CC(C)COc1nc(-c2ccccc2)cc(-c2ccccc2)c1C#N | – | – | Active | – | – | – | – | – | – | – |
| – | – | CC(C)COCC(NC(=O)c1cccnc1)c1ccco1 (stereo not given) | – | – | Active | – | – | – | – | – | – | – |
| inactive | Active | CC(C)NC(=O)Cn1ccc2ccc(OCc3ccccc3)cc21 | Active | No effect | Active | Active | No effect | Active | Active | No effect | Active | Active |
| Active | inactive | C=CCNC(=O)c1cn(-c2ccccc2)nc1-c1cccs1 | – | – | – | – | – | – | – | – | – | – |

Reference: ChEMBL document CHEMBL6087470, “Design of Small Non-Peptidic Ligands That Alter Heteromerization between Cannabinoid CB1 and Serotonin 5HT2A Receptors” (J Med Chem, 2025)
